From PMC3646771, “The Second Intracellular Loop of the Human Cannabinoid CB2 Receptor Governs G Protein Coupling in Coordination with the Carboxyl Terminal Domain” (PLoS ONE, 2013) come the findings set out here.

Common to all, as to experiment: CRE-luciferase cAMP reporter, HEK293
What all share (format): cell-based, Homo sapiens

The test system of one experiment is T1, CB2-ICL1 (i1).
T1 construct: gene CNR2; Flag-tagged CB2 with first intracellular loop replaced by that of CB1; HEK293
The note with it: agonist; inhibition of cAMP elevated by 10 µM forskolin, 4 h, 37 °C; pEC50 8.17±0.19. From the text: CRE-luciferase cAMP reporter, HEK293 on CB2-ICL1 (i1)

For another experiment, the system named is T2, CB2-ICL3 (i3).
T2 construct: gene CNR2; Flag-tagged CB2 with third intracellular loop replaced by that of CB1; HEK293
The note with it: agonist; inhibition of cAMP elevated by 10 µM forskolin, 4 h, 37 °C; pEC50 7.99±0.22. The source says: CRE-luciferase cAMP reporter, HEK293 on CB2-ICL3 (i3)

The subject of another experiment is T3, CB2-ICL2 (i2).
T3 construct: gene CNR2; Flag-tagged CB2 with second intracellular loop replaced by that of CB1; HEK293
The conditions noted are these: agonist; inhibition of cAMP elevated by 10 µM forskolin, 4 h, 37 °C; pEC50 7.74±0.09. From the text:
CRE-luciferase cAMP reporter, HEK293 on CB2-ICL2 (i2)

For the next experiment, the system named is T4, CB2-ICL2ICL3 (i2i3).
T4 construct: gene CNR2; Flag-tagged CB2 with second and third intracellular loops of CB1; HEK293
The note with it: agonist; inhibition of cAMP elevated by 10 µM forskolin, 4 h, 37 °C; pEC50 8.47±0.15. From the text: CRE-luciferase cAMP reporter, HEK293 on CB2-ICL2ICL3 (i2i3)

For experiment [1], the system named is T5, CB2-ICL2ICL3Cter (i2i3Cter).
T5 construct: gene CNR2; Flag-tagged CB2 with second and third intracellular loops and C-terminal tail of CB1; HEK293
The conditions noted are these: agonist; inhibition of cAMP elevated by 10 µM forskolin, 4 h, 37 °C; pEC50 8.48±0.22. The source says: CRE-luciferase cAMP reporter, HEK293 on CB2-ICL2ICL3Cter (i2i3Cter)

Another experiment deals with T6, CB2-ICL2Cter (i2Cter).
T6 construct: gene CNR2; Flag-tagged CB2 with second intracellular loop and C-terminal tail of CB1; HEK293
The note with it: agonist; stimulation of cAMP, no forskolin, 4 h, 37 °C; pEC50 6.85±0.1. From the text:
CRE-luciferase cAMP reporter, HEK293 on CB2-ICL2Cter (i2Cter)

For the next experiment, the system named is T7, CB2-Cter (Cter).
T7 construct: gene CNR2; Flag-tagged CB2 with C-terminal tail replaced by that of CB1; HEK293
The conditions noted are these: agonist, 4 h, 37 °C. From the text: CRE-luciferase cAMP reporter, HEK293 on CB2-Cter (Cter)

By EC50 is commonly meant the concentration at which the effect is half-maximal. As to `Cc1c(C(=O)c2cccc3ccccc23)c2cccc3c2n1[C@H](CN1CCOCC1)CO3` [WIN55,212-2], the 50% effective concentration (EC50) in the experiment on CB2-ICL1 (i1) is 8 ± 2.8 nM; in the experiment with CB2-ICL3 (i3) it was 13.4 ± 7.3 nM; in the experiment on CB2-ICL2 (i2) it was 19.2 ± 4.4 nM; in the experiment with CB2-ICL2ICL3 (i2i3), 3.8 ± 1.2 nM; in experiment [1], 4.4 ± 2.4 nM; in the experiment with CB2-ICL2Cter (i2Cter), 149 ± 35 nM. The EC50 in the experiment on CB2-Cter (Cter) (P139LCter, stimulation of cAMP, no forskolin, pEC50 7.53±0.11) was 29.8 ± 7.1 nM; with CB2-Cter (Cter) (inhibition of cAMP elevated by 10 µM forskolin, pEC50 8.23±0.03) it was 5.9 ± 0.4 nM.
